Patent US7364874B2, “Mediucm for detecting Van A and Van B vancomycin-resistant entercocci and method of using the same” (priority 2001, dated 2008)
Values after ≈ are worked out from the molar mass of the structure shown. Where two headings read alike, the source gives them in different places.

What was measured:
[1] = tested on: Enterococcus faecalis that does not carry vancomycine resistance genes (incl. ATCC29212); experiment: Test Example 2: vancomycin MIC changes when D-lactic acid (DL-sodium lactate) is added (checkerboard method); assay type: cell-based; conditions: DL-sodium lactate 0.025-[…]
[2] = tested on: Enterococcus faecium that does not carry vancomycine resistance genes; experiment: as above; assay type: cell-based; conditions: DL-sodium lactate 0.025-[…]
[3] = tested on: Enterococcus avium that does not carry vancomycine resistance genes; experiment: as above; assay type: cell-based; conditions: DL-sodium lactate 0.025-[…]
[4] = tested on: Van C type, Enterococcus casseliflavus; experiment: as above; assay type: cell-based
[5] = tested on: Van C type, Enterococcus gallinarum; experiment: as above; assay type: cell-based
Van A VRE [6] = experiment: as above; assay type: cell-based, E. faecium
Van B VRE [7] = experiment: as above; assay type: cell-based, E. faecium, E. faecalis
Van A VRE [8] = experiment: microbe, parasite or virus in culture; assay type: cell-based, E. faecium; conditions: Enterococcus, read-out: vancomycin MIC
Van B VRE [9] = experiment: microbe, parasite or virus in culture; assay type: cell-based, E. faecium, E. faecalis; conditions: Enterococcus, read-out: vancomycin MIC
Van C VRE = conditions: cited from earlier work
Van D VRE = conditions: cited from earlier work
Van E VRE = conditions: cited from earlier work
Van G VRE = conditions: cited from earlier work
[10] = tested on: Van C type, Enterococcus casseliflavus; experiment: microbe, parasite or virus in culture; conditions: read-out: vancomycin MIC, with addition of D-cycloserine, all strains of the group
[11] = tested on: Van C type, Enterococcus gallinarum; experiment: microbe, parasite or virus in culture; conditions: read-out: vancomycin MIC, with addition of D-cycloserine, all strains of the group
Van A VRE [12] = conditions: carries van A gene; cited from earlier work
Van B VRE [13] = conditions: carries van B gene; cited from earlier work
[14] = Enterococcus, VRE, read-out: vancomycin MIC

CC(O)C(=O)[O-].[Na+] (racemic) [DL-sodium lactate]
effect of the addition of DL-sodium lactate on the vancomycin MIC [1]: did not change the vancomycin MIC
effect of the addition of DL-sodium lactate on the vancomycin MIC [2]: did not change the vancomycin MIC
effect of the addition of DL-sodium lactate on the vancomycin MIC [3]: did not change the vancomycin MIC
effect of the addition of DL-sodium lactate on the vancomycin MIC ([4]; DL-sodium lactate 0.025-[…]): The addition of DL-sodium lactate did not change the vancomycin
effect of the addition of DL-sodium lactate on the vancomycin MIC ([5]; DL-sodium lactate 0.025-[…]): The addition of DL-sodium lactate did not change the vancomycin
effect of the addition of DL-sodium lactate on the vancomycin MIC (Van A VRE [6]; DL-sodium lactate 0.025-[…], 5 strains): increased the vancomycin MIC or maintained the vancomycin MIC as high as more than 512 μg/ml
optimum concentration of addition of DL-sodium lactate (Van B VRE [7]; for increasing the vancomycin MIC): 0.2 mol/L
concentration of DL-sodium lactate at which the organisms tend to grow worse (Van B VRE [7]; growth worse in line with the added amount): more than 0.4 mol/l

CN[C@H](CC(C)C)C(=O)N[C@H]1C(=O)N[C@@H](CC(N)=O)C(=O)N[C@H]2C(=O)N[C@H]3C(=O)N[C@H](C(=O)N[C@H](C(=O)O)c4cc(O)cc(O)c4-c4cc3ccc4O)[C@H](O)c3ccc(c(Cl)c3)Oc3cc2cc(c3O[C@@H]2O[C@H](CO)[C@@H](O)[C@H](O)[C@H]2O[C@H]2C[C@](C)(N)[C@H](O)[C@H](C)O2)Oc2ccc(cc2Cl)[C@H]1O [vancomycin]
MIC (Van A VRE [8]): > 32 µg/mL
MIC (Van B VRE [9]): > 32 µg/mL
MIC ([4]; Enterococcus casseliflavus, read-out: vancomycin MIC, with addition of DL-sodium lactate, all strains of the group): < 32 µg/mL
MIC ([5]; Enterococcus gallinarum, GALLINARUM, read-out: vancomycin MIC, with addition of DL-sodium lactate, all strains of the group): < 32 µg/mL
MIC (Van A VRE [6]; [14]): > 32 µg/mL
MIC (Van B VRE [7]; [14]): > 32 µg/mL
minimum inhibitory concentration (MIC) (Van C VRE): 2 to 32 µg/mL
minimum inhibitory concentration (MIC) (Van D VRE): 64 to 1024 µg/mL
minimum inhibitory concentration (MIC) (Van E VRE): 16 µg/mL (≈ 11 µM)
minimum inhibitory concentration (MIC) (Van G VRE): 12 to 16 µg/mL
MIC [10]: < 32 µg/mL
MIC [11]: < 32 µg/mL

teicoplanin
minimum inhibitory concentration (MIC) (Van A VRE [12]): 16 to 512 µg/mL
minimum inhibitory concentration (MIC) (Van B VRE [13]): 0.5 to 1 µg/mL
minimum inhibitory concentration (MIC) (Van C VRE; carries van C gene): 0.5 to 1 µg/mL
minimum inhibitory concentration (MIC) (Van D VRE; carries van D gene): 4 to 1024 µg/mL
minimum inhibitory concentration (MIC) (Van E VRE; carries van E gene): 0.5 µg/mL
minimum inhibitory concentration (MIC) (Van G VRE; carries van G gene): 0.5 µg/mL
